Results taken from patent US10189831B2, “Non-nucleoside reverse transcriptase inhibitors” (Merck Sharp & Dohme Corp., priority 2012, dated 2019).

Target: HIV-1 RT wild-type enzyme (Human immunodeficiency virus type 1 group M subtype B (isolate HXB2) (HIV-1), UniProt P04585)
Test: Determination of HIV-1 reverse transcriptase inhibitory activity (RT polymerase assay)
Format: biochemical
Settings: HIV-1 RT wild-type enzyme 83 pM, RNA-dependent DNA polymerase reaction
Description: The heterodimeric nucleic acid substrate used in the HIV-1 RT polymerase reactions was generated by annealing the DNA primer, biotinylated pD500 (Sigma Aldrich, USA, 5′-biotin-ttg aaa tga ctg cgg tac ggc-3′), SEQ ID NO. 1 to the nucleotide RNA template t500 (derived from hepatitis C virus [HCV] sequence, IBA, Germany, 5′-[…]-3′), SEQ ID NO 2.). […] The mixture was then preincubated on an orbital shaker for 30 min at room temperature in microtiter plates (Costar 3365, Corning, USA). A polymerization reaction was initiated by the addition of RNA template/pD500 DNA primer hybrid (16.6 nM final of RNA/DNA hybrid) and dNTPs (2 μM dATP, dGTP, dCTP and 66.6 nM Ru-dUTP (Meso Scale Discovery, USA)). Plate was sealed and incubated for 5-10 min at room temperature on an orbital shaker. Plate was then incubated for 90 min at 37° C. and reactions quenched with 60 μl quenching buffer (50 mM EDTA, 0.7% BSA, 0.7% Tween-20, 0.017% sodium azide in PBS). […] After washing plate 3 times with 150 μL 1×PBS and blotting dry between cycles, 150 μL 1× Read Buffer T (4× Read Buffer T, Meso Scale Discovery) was added and incubated for 5 min at room temperature before counting on a Sector Imager S6000 (Meso Scale Discovery). Titration curves and IC50 values were calculated using a four parameter logistic fit according to standard procedures. […]

CC(C)c1ccc(-c2cc(Cn3cnc(C(F)(F)F)c(Oc4cc(Cl)cc(C#N)c4)c3=O)n[nH]c2=O)cc1 [Example 49, 3-chloro-5-((1-((5-(4-isopropylphenyl)-6-oxo-1,6-dihydropyridazin-3-yl)methyl)-6-oxo-4-(trifluoromethyl)-1,6-dihydropyrimidin-5-yl)oxy)benzonitrile]
IC50: 0.015 µM
